Measurements from US5556744A, “Methods and compositions for diagnosing and treating certain HIV infected patients” (The Trustees of the University of Pennsylvania, priority 1994, dated 1996).

Legend:
Parameters in all cases: species or system human
[1] = test system: maternal sera (antibodies); assay: ELISA peptide-binding of maternal sera (Example 6); settings: for Number of Non-Transmitters which bound to peptide / Percent of Non-Transmitters which bound to peptide: N = 12; for Number of Transmitters which bound to peptide / Percent of Transmitters which bound to peptide: N = 4
Outline: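 HIV-1 envelope peptides averaging 16 amino acids, covering external and transmembrane glycoprotein, were probed by ELISA. Third-trimester maternal sera, classed as transmitter or non-transmitter by child diagnosis, were each run on at least 40 peptides. Values give percent of sera binding a peptide.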

[2] = test system: maternal serum samples (antibodies); assay: ELISA peptide-binding of maternal sera, expanded peptide collection (Example 5); settings: Example 5
Description: The gp120 and gp41 peptides used in this experiment include peptides 60 [SEQ ID NO:9], 93 [SEQ ID NO:10], 94 [SEQ ID NO:1], 95 [SEQ ID NO:11], 96 [SEQ ID NO:12], 97 [SEQ ID NO:13], 59 [SEQ ID NO:14], 106 [SEQ ID NO:15], 107 [SEQ ID NO:[…]], 1029/33 [SEQ ID NO:2], p18p [SEQ ID NO:17], B138 [SEQ ID NO:3], 466 [SEQ ID NO:4], 497 [SEQ ID NO:18], 117 [SEQ ID NO:19], F560 [SEQ ID NO:20], 35 [SEQ ID NO:5], 120 [SEQ ID NO:21], 121 [SEQ ID NO:22], 123 [SEQ ID NO:23], 36 [SEQ ID NO:24], 40 [SEQ ID NO:25], 41 [SEQ ID NO:26], 649 [SEQ ID NO:6], 53 [SEQ ID NO:7], 55 [SEQ ID NO:27], 128 [SEQ ID NO:28], 129 [SEQ ID NO:29], 132 [SEQ ID NO:30], 57 [SEQ ID NO:8], and 1103/55 [SEQ ID NO:31] from Table 2. These peptides were synthesized based on the same HIV IIIB isolate as were the peptides of Table 2. Alternative designations for these peptides are provided in brackets.
Each of the peptides was at least 85% pure, making them suitable for ELISA analyses. The average length of these peptides was 18 amino acid residues, which allows for a certain degree of local flexibility and conformational folding, thus facilitating detection of antibody species with reactivities to shaped structures.
The maternal serum samples were obtained from the Mothers/Infants Cohort Study described in Example 1. For the ELISA peptide-binding analyses performed essentially as described in Example 3, maternal serum samples were diluted to 1:50 or 1:500 with blocking buffer (1% bovine serum albumin in phosphate-buffered saline containing 0.05% Tween 20). Binding was measured using 10 μg/mL peptide per well and was considered positive if the experimental/control OD450nm ratio was ≥2. Normal (HIV seronegative) human sera were used as controls.

[3] = test system: maternal HIV+ sera (antibodies); assay: RIA / ELISA binding of maternal HIV+ sera to gp120 and gp41 peptides (Example 3); settings: for Percent of the maternal serum samples that bound to the peptide: all 20 samples; for Correlation of peptide recognition with lack of vertical transmission: in words
Outline: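 Maternal sera, diluted 1:50 and 1:500, were bound overnight at 4°C to peptides immobilized at 10 μg/ml (pH 9.6 carbonate) and blocked with 1% BSA. Read-out was ¹²⁵I-labelled anti-human IgG counts or HRP-TMB OD450. Signal with peptide minus without was expressed relative to seronegative serum.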

[4] = Serum No. 1, Non-Transmission Group
[5] = Serum No. 2, Non-Transmission Group
[6] = Serum No. 3, Non-Transmission Group
[7] = Serum No. 4, Transmission Group
[8] = Serum No. 5, Transmission Group
[9] = Serum No. 6, Non-Transmission Group
[10] = Serum No. 7, Non-Transmission Group
[11] = Serum No. 8, Non-Transmission Group
[12] = Serum No. 9, Non-Transmission Group
[13] = Serum No. 10, Transmission Group
[14] = Serum No. 11, Non-Transmission Group
[15] = Serum No. 12, Non-Transmission Group
[16] = Serum No. 13, Transmission Group
[17] = Serum No. 14, Transmission Group
[18] = Serum No. 15, Transmission Group
[19] = Serum No. 16, Non-Transmission Group
[20] = Serum No. 17, Non-Transmission Group
[21] = Serum No. 18, Non-Transmission Group
[22] = Serum No. 19, Transmission Group
[23] = Serum No. 20, Non-Transmission Group

| Sequence | Number of Non-Transmitters which bound to peptide [1] | Percent of Non-Transmitters which bound to peptide [1] [%] | Number of Transmitters which bound to peptide [1] | Percent of Transmitters which bound to peptide [1] [%] | Binding / reactivity of maternal sera to peptide (in words) [2] | Binding of maternal HIV+ serum to peptide (sera/NHS ratio) [3, 4] | Binding of maternal HIV+ serum to peptide (sera/NHS ratio) [3, 5] | Binding of maternal HIV+ serum to peptide (sera/NHS ratio) [3, 6] | Binding of maternal HIV+ serum to peptide (sera/NHS ratio) [3, 7] | Binding of maternal HIV+ serum to peptide (sera/NHS ratio) [3, 8] | Binding of maternal HIV+ serum to peptide (sera/NHS ratio) [3, 9] | Binding of maternal HIV+ serum to peptide (sera/NHS ratio) [3, 10] | Binding of maternal HIV+ serum to peptide (sera/NHS ratio) [3, 11] | Binding of maternal HIV+ serum to peptide (sera/NHS ratio) [3, 12] | Binding of maternal HIV+ serum to peptide (sera/NHS ratio) [3, 13] | Binding of maternal HIV+ serum to peptide (sera/NHS ratio) [3, 14] | Binding of maternal HIV+ serum to peptide (sera/NHS ratio) [3, 15] | Binding of maternal HIV+ serum to peptide (sera/NHS ratio) [3, 16] | Binding of maternal HIV+ serum to peptide (sera/NHS ratio) [3, 17] | Binding of maternal HIV+ serum to peptide (sera/NHS ratio) [3, 18] | other results |
| --- | --- | --- | --- | --- | --- | --- | --- | --- | --- | --- | --- | --- | --- | --- | --- | --- | --- | --- | --- | --- | --- |
| CQNQQEKNEQELLEL [Peptide 649] | 7 | 43.8 | 2 | 50 | recognized by the transmission group | ++ (which value is greater than 3) | + (which value is between 2 to 3) | + (which value is between 2 to 3) | + (which value is between 2 to 3) | - (specific OD450 or cpm of sera sample binding to peptide divided by the specific OD450 or cpm of NHS sample binding to peptide, which value is less than 2) | ++ (which value is greater than 3) | ++ (which value is greater than 3) | ++ (which value is greater than 3) | - (specific OD450 or cpm of sera sample binding to peptide divided by the specific OD450 or cpm of NHS sample binding to peptide, which value is less than 2) | - (specific OD450 or cpm of sera sample binding to peptide divided by the specific OD450 or cpm of NHS sample binding to peptide, which value is less than 2) | ++ (which value is greater than 3) | ++ (which value is greater than 3) | - (specific OD450 or cpm of sera sample binding to peptide divided by the specific OD450 or cpm of NHS sample binding to peptide, which value is less than 2) | + (which value is between 2 to 3) | + (which value is between 2 to 3) | Difference in binding of samples from transmission vs non-transmission group (Spearman rank-order correlation) ([3]; Example 3): significant statistical difference; Binding of maternal HIV+ serum to peptide (sera/NHS ratio) [3, 19]: - (specific OD450 or cpm of sera sample binding to peptide divided by the specific OD450 or cpm of NHS sample binding to peptide, which value is less than 2); Binding of maternal HIV+ serum to peptide (sera/NHS ratio) [3, 20]: + (which value is between 2 to 3); Binding of maternal HIV+ serum to peptide (sera/NHS ratio) [3, 21]: + (which value is between 2 to 3); Binding of maternal HIV+ serum to peptide (sera/NHS ratio) [3, 22]: - (specific OD450 or cpm of sera sample binding to peptide divided by the specific OD450 or cpm of NHS sample binding to peptide, which value is less than 2); Binding of maternal HIV+ serum to peptide (sera/NHS ratio) [3, 23]: - (specific OD450 or cpm of sera sample binding to peptide divided by the specific OD450 or cpm of NHS sample binding to peptide, which value is less than 2); Percent of the maternal serum samples that bound to the peptide [3]: 70%; Correlation of peptide recognition with lack of vertical transmission [3]: correlated with non-transmission status; Correlation of peptide recognition with lack of vertical transmission ([3]; listed as SEQ ID NO: 6): clearly correlated to non-transmission status |
| NATAIAVAEGTDRVIEVVQGAYRAI [1103/55] | 0 | 0 | 0 | 0 | recognized by the transmission group | - (specific OD450 or cpm of sera sample binding to peptide divided by the specific OD450 or cpm of NHS sample binding to peptide, which value is less than 2) | ++ (which value is greater than 3) | - (specific OD450 or cpm of sera sample binding to peptide divided by the specific OD450 or cpm of NHS sample binding to peptide, which value is less than 2) | ++ (which value is greater than 3) | - (specific OD450 or cpm of sera sample binding to peptide divided by the specific OD450 or cpm of NHS sample binding to peptide, which value is less than 2) | ++ (which value is greater than 3) | ++ (which value is greater than 3) | ++ (which value is greater than 3) | - (specific OD450 or cpm of sera sample binding to peptide divided by the specific OD450 or cpm of NHS sample binding to peptide, which value is less than 2) | - (specific OD450 or cpm of sera sample binding to peptide divided by the specific OD450 or cpm of NHS sample binding to peptide, which value is less than 2) | - (specific OD450 or cpm of sera sample binding to peptide divided by the specific OD450 or cpm of NHS sample binding to peptide, which value is less than 2) | ++ (which value is greater than 3) | - (specific OD450 or cpm of sera sample binding to peptide divided by the specific OD450 or cpm of NHS sample binding to peptide, which value is less than 2) | ++ (which value is greater than 3) | - (specific OD450 or cpm of sera sample binding to peptide divided by the specific OD450 or cpm of NHS sample binding to peptide, which value is less than 2) | Binding of maternal HIV+ serum to peptide (sera/NHS ratio) [3, 19]: - (specific OD450 or cpm of sera sample binding to peptide divided by the specific OD450 or cpm of NHS sample binding to peptide, which value is less than 2); Binding of maternal HIV+ serum to peptide (sera/NHS ratio) [3, 20]: ++ (which value is greater than 3); Binding of maternal HIV+ serum to peptide (sera/NHS ratio) [3, 21]: ++ (which value is greater than 3); Binding of maternal HIV+ serum to peptide (sera/NHS ratio) [3, 22]: - (specific OD450 or cpm of sera sample binding to peptide divided by the specific OD450 or cpm of NHS sample binding to peptide, which value is less than 2); Binding of maternal HIV+ serum to peptide (sera/NHS ratio) [3, 23]: - (specific OD450 or cpm of sera sample binding to peptide divided by the specific OD450 or cpm of NHS sample binding to peptide, which value is less than 2); Percent of the maternal serum samples that bound to the peptide [3]: 45% |
